Several values for one entry are separate records, joined by “and”; a condition that tells them apart may be missing. Equal entries are not always repeated. Where no end group is shown, it is not given here.
Columns and labels:
[1] = Anti-cancer activity, 5637 cell; format: cell-based, human; conditions: bladder cancer; for CC50 at 2 days: human, read-out: LC50; for CC50: read-out: LC50 (the source's name)
Experimental: (§1) Anti-cancer activity was evaluated using a method complying with an anti-cancer agent screening method (1990) using a human cancer cell panel which has been carried out by U.S. National Cancer Institute (NCI). Cells employed in experiments were from the following three cell lines: HL60 cell (cell line derived from human leukemia); HeLa cell (cell line derived from human uterine cancer); and HCT116 cell (cell line derived from human large intestine cancer). Media suitable for use of these cells are RPMI-1640 medium containing 10% FCS; a MEM medium containing 10% CS; and McCoy5A medium containing 10% FCS, respectively.
(§2) Cells suspended in themedium wereplated into 96-well plates at a concentration of 1×10^5 cells/cm^2, followed by incubation overnight. Peptide solutions containing various concentrations of the peptide of the present invention were added to the plates, followed by incubation at 37° C. for 2 days in a CO2 incubator. During culturing, the growth of the cells was measured by colorimetry using sulforhodamine B and the peptide concentration was categorized into any of GI50 which is the concentration at which the growth is inhibited by 50% as compared to the control; TGI which is the concentration at which the number of cells is seemingly not increased or decreased from the time of addition of the peptide of the present invention, i.e., the growth is suppressed to the same number of cells as when the peptide was added: and LC50 which is the concentration at which the number of cells is decreased to 50% of that at the time of addition of the peptide.
(§3) Thereafter, various cancer cells were employed to confirm the anti-cancer activity of mast21R. Each cancer cell was cultured in RPMI-1640 medium containing 10% FCS.

[2] = Anti-cancer activity, EJ-1 cell; format: cell-based, human; conditions: for CC50 at 2 days: human, EJ-1 cells (bladder cancer cells), read-out: LC50; for CC50: bladder cancer, read-out: LC50 (the source's name)
Experimental: as §1, §2, §3

[3] = Anti-cancer activity, KATO III cell; format: cell-based, human; conditions: for CC50 at 2 days: human, KATO III cells (stomach cancer cells), read-out: LC50; for CC50: stomach cancer, read-out: LC50 (the source's name)
Experimental: as §1, §2, §3

[4] = Anti-cancer activity, SH-10-TC; format: cell-based, human; conditions: for LC50 at 2 days: human, SH-10-TC cells (stomach cancer cells); for LC50: stomach cancer
Experimental: as §1, §2, §3

[5] = Anti-cancer activity, SR-BR-3; format: cell-based, human; conditions: SR-BR-3, breast cancer; for CC50 at 2 days: human, SR-BR-3 cells (breast cancer cells), read-out: LC50; for CC50: read-out: LC50 (the source's name)
Experimental: as §1, §2, §3

[6] = Anti-cancer activity, MCF7; format: cell-based, human; conditions: for LC50 at 2 days: human, MCF7 cells (breast cancer cells); for LC50: MCF7, breast cancer
Experimental: as §1, §2, §3

[7] = Anti-cancer activity, A549; format: cell-based, human; conditions: A549, lung cancer; for CC50 at 2 days: human, read-out: LC50; for CC50: read-out: LC50 (the source's name)
Experimental: as §1, §2, §3

[8] = Anti-cancer activity, LK-2; format: cell-based, human; conditions: LK-2, lung cancer; for CC50 at 2 days: human, LK-2 cells (lung cancer cells), read-out: LC50; for CC50: read-out: LC50 (the source's name)
Experimental: as §1, §2, §3

[9] = Anti-cancer activity, EBC-1; format: cell-based, human; conditions: EBC-1, lung cancer; for CC50 at 2 days: human, EBC-1 cells (lung cancer cells), read-out: LC50; for CC50: read-out: LC50 (the source's name)
Experimental: as §1, §2, §3

[10] = Anti-cancer activity, PC-3; format: cell-based, human; conditions: PC-3, prostate cancer; for CC50 at 2 days: human, PC-3 cells (prostate cancer cells), read-out: LC50; for CC50: read-out: LC50 (the source's name)
Experimental: as §1, §2, §3

[11] = Anti-cancer activity, DU-145; format: cell-based, human; conditions: DU-145, prostate cancer; for CC50 at 2 days: human, read-out: LC50; for CC50: read-out: LC50 (the source's name)
Experimental: as §1, §2, §3

[12] = Anti-cancer activity, A172; format: cell-based, human; conditions: A172, glioblastoma; for CC50 at 2 days: human, read-out: LC50; for CC50: read-out: LC50 (the source's name)
Experimental: as §1, §2, §3

[13] = Anti-cancer activity, colo205; format: cell-based, human; conditions: colo205, large intestine cancer; for CC50 at 2 days: human, read-out: LC50; for CC50: read-out: LC50 (the source's name)
Experimental: as §1, §2, §3

[14] = Anti-cancer activity, HCT-15; format: cell-based, human; conditions: HCT-15, large intestine cancer; for CC50 at 2 days: human, HCT-15 cells (large intestine cancer cells), read-out: LC50; for CC50: read-out: LC50 (the source's name)
Experimental: as §1, §2, §3

[15] = Anti-cancer activity, D98-AH2; format: cell-based, human; conditions: for CC50 at 2 days: human, D98-AH2 cells (uterine cancer cells), read-out: LC50; for CC50: D98-AH2, uterine cancer, read-out: LC50 (the source's name)
Experimental: as §1, §2, §3

[16] = Anti-cancer activity, NIH OVCAR-3; format: cell-based, human; conditions: NIH OVCAR-3, ovarian cancer; for CC50 at 2 days: human, NIH OVCAR-3 cells (ovarian cancer cells), read-out: LC50; for CC50: read-out: LC50 (the source's name)
Experimental: as §1, §2, §3

[17] = Anti-cancer activity, ACHN; format: cell-based, human; conditions: for CC50 at 2 days: human, ACHN cells (kidney cancer cells), read-out: LC50; for CC50: kidney cancer, read-out: LC50 (the source's name)
Experimental: as §1, §2, §3

[18] = tested on: Erwinia carotovora (NBRC3380); assay: Antibacterial activity against plant pathogenic bacteria; format: cell-based; conditions: 30° C., 16 to 24 h
Experimental: Mast21, mast21R, ALR6, and KVL6 were evaluated with respect to antibacterial activity against Erwinia carotovora (NBRC3380) which is a plant pathogenic bacterium causing soft rot. Specifically, a minimum concentration of a peptide capable of inhibiting the growth of bacteria was determined using microtiter plates. Bacteria were cultured for 16 h in culture medium (Difco Nutrient Broth 8 g, NaCl 5 g/L, pH 7.0), followed by measurement of absorbance at A600. Each bacterial strain was diluted into a final concentration of 1×10^6 CFU/ml. For each peptide, 5 mM aqueous solution was prepared, and thereafter, was subjected to serial dilution. The peptide serial dilutions (50 μl for each) were added to respective wells of the microplate to which 50 μl of the bacterial solution had been added (final cell concentration: 5×10^5 CFU/ml, final peptide concentration: 0 to 50 μM). […] The unit of concentration described in Table 9 is μM.

[19] = Anti-cancer activity, HCT116 cell; format: cell-based, human; conditions: sulforhodamine B
Experimental: as §1
(§4) Cells suspended in themedium wereplated into 96-well plates at a concentration of 1×10^5 cells/cm^2, followed by incubation overnight. Peptide solutions containing various concentrations of the peptide of the present invention were added to the plates, followed by incubation at 37° C. for 2 days in a CO2 incubator. […]

[20] = Anti-cancer activity, HeLa cell; format: cell-based, human; conditions: sulforhodamine B
Experimental: as §1, §4

[21] = Anti-cancer activity, HL60 cell; format: cell-based, human; conditions: sulforhodamine B
Experimental: as §1, §4

[22] = tested on: B. subtilis IFO13722; conditions: IFO13722, 18 h
[23] = tested on: B. sereus IFO3457; conditions: 18 h
[24] = tested on: S. aureus IFO13276; conditions: IFO13276, 18 h
[25] = tested on: S. aureus JCM2413; conditions: JCM2413, 18 h
[26] = tested on: E. coli JCM1649; conditions: JCM1649, 18 h
[27] = tested on: E. coli CR-3; conditions: CR-3, 18 h
[28] = tested on: E. coli CE-273; conditions: CE-273, 18 h
[29] = tested on: S. enteritidis ATCC1891; conditions: ATCC1891, 18 h
[30] = tested on: S. enteritidis ATC14028; conditions: ATC14028, 18 h
[31] = tested on: erythrocytes; conditions: red cells of human, 100 μM
[32] = 2 days, read-out: LC50 (the source's name)

## ALRALRALRALRALRALR [ALR6, ALRALRALRALRALRALR]
[1]
  CC50 at 2 days: > 100 µM
[2]
  CC50 at 2 days: > 100 µM
[3]
  CC50 at 2 days: > 100 µM
[4]
  LC50 at 2 days: > 100 µM
[5]
  CC50 at 2 days: 100 µM
[6]
  LC50 at 2 days: 80 µM
[7]
  CC50 at 2 days: > 100 µM
[8]
  CC50 at 2 days: > 100 µM
[9]
  CC50 at 2 days: > 100 µM
[10]
  CC50 at 2 days: > 100 µM
[11]
  CC50 at 2 days: > 100 µM
[12]
  CC50 at 2 days: > 100 µM
[13]
  CC50 at 2 days: > 100 µM
[14]
  CC50 at 2 days: > 100 µM
[15]
  CC50 at 2 days: > 100 µM
[16]
  CC50 at 2 days: > 100 µM
[17]
  CC50 at 2 days: > 100 µM
[18]
  MIC: 3.1 μM and 3.2 μg/ml

## KVLKVLKVLKVLKVLKVL [KVL6, KVLKVLKVLKVLKVLKVL]
[1]
  CC50 at 2 days: 100 µM
[2]
  CC50 at 2 days: 90 µM
[3]
  CC50 at 2 days: 100 µM
[4]
  LC50 at 2 days: 60 µM
[5]
  CC50 at 2 days: 100 µM
[6]
  LC50 at 2 days: 100 µM
[7]
  CC50 at 2 days: 70 µM
[8]
  CC50 at 2 days: > 100 µM
[9]
  CC50 at 2 days: > 100 µM
[10]
  CC50 at 2 days: > 100 µM
[11]
  CC50 at 2 days: > 100 µM
[12]
  CC50 at 2 days: > 100 µM
[13]
  CC50 at 2 days: 100 µM
[14]
  CC50 at 2 days: 80 µM
[15]
  CC50 at 2 days: > 100 µM
[16]
  CC50 at 2 days: > 100 µM
[17]
  CC50 at 2 days: 80 µM
[18]
  MIC: 3.1 μM and 3.2 μg/ml

## RNWRGIAGMARRLLGRNWRLM [mast21R]
[19]; [32]
  CC50: 2 µM
[20]; [32]
  CC50: 20 µM
[21]; 2 days
  LC50: 20 µM
[1]
  CC50: 50 µM
[2]
  CC50: 20 µM
[3]
  CC50: 50 µM
[4]
  LC50: 60 µM
[5]
  CC50: 90 µM
[6]
  LC50: 90 µM
[7]
  CC50: 50 µM
[8]
  CC50: > 100 µM
[9]
  CC50: 70 µM
[10]
  CC50: 60 µM
[11]
  CC50: 90 µM
[12]
  CC50: 50 µM
[13]
  CC50: 50 µM
[14]
  CC50: 30 µM
[15]
  CC50: 50 µM
[16]
  CC50: 80 µM
[17]
  CC50: 30 µM
[18]
  MIC: 1.6 μM and 2 μg/ml
[22]
  MIC: 1.56 µM
[23]
  MIC: 3.1 µM
[24]
  MIC: 6.25 µM
[25]
  MIC: 6.25 µM
[26]
  MIC: 3.1 µM
[27]
  MIC: 1.6 µM
[28]
  MIC: 3.1 µM
[29]
  MIC: 3.1 µM
[30]
  MIC: 3.1 µM
[31]
  Hemolytic property (relative value): 13%

## KVLKVLKVLKVLKVL [KVL5, KVLKVLKVLKVLKVL]
[19]; human, read-out: LC50
  CC50 at 2 days: > 100 µM
[20]; human, HeLa cells (uterine cancer cell line), read-out: LC50
  CC50 at 2 days: > 100 µM
[21]; human, HL60 cells (leukemia cell line)
  LC50 at 2 days: > 100 µM
[22]
  MIC: 25 µM
[23]
  MIC: 200 µM
[24]
  MIC: 100 µM
[25]
  MIC: 200 µM
[26]
  MIC: 12.5 µM
[27]
  MIC: 25 µM
[28]
  MIC: 6.3 µM
[29]
  MIC: 25 µM
[30]
  MIC: 100 µM

## KNWKGIAGMAKKLLGKNWKLM [mast21, reference compound]
[1]
  CC50: > 100 µM
[2]
  CC50: 70 µM
[3]
  CC50: > 100 µM
[4]
  LC50: 90 µM
[5]
  CC50: 90 µM
[6]
  LC50: 100 µM
[7]
  CC50: 70 µM
[8]
  CC50: > 100 µM
[9]
  CC50: 100 µM
[10]
  CC50: 100 µM
[11]
  CC50: > 100 µM
[12]
  CC50: > 100 µM
[13]
  CC50: > 100 µM
[14]
  CC50: 80 µM
[15]
  CC50: > 100 µM
[16]
  CC50: 100 µM
[17]
  CC50: 80 µM
[18]
  MIC: 3.1 μM and 3.7 μg/ml
[22]
  MIC: 6.3 µM
[23]
  MIC: 3.1 µM
[24]
  MIC: 25 µM
[25]
  MIC: 12.5 µM
[26]
  MIC: 6.3 µM
[27]
  MIC: 6.3 µM
[28]
  MIC: 3.1 µM
[29]
  MIC: 6.3 µM
[30]
  MIC: 6.3 µM
[31]
  Hemolytic property (relative value): 5.4%

Reference: patent US20040072992A1, “Novel peptide capable of specifically acting on biological membrane” (priority 2002, published 2004)
